# According to US11851391B2, “Antifungal compounds and methods of forming the same” (University of Kentucky Research Foundation, priority 2018, dated 2023):
# Where two headings read alike, the source gives them in different places.
# What was measured:
# [1] = test system: murine red blood cells (mRBCs); conditions: for Percentage of hemolysis (±SDEV): mouse, 60 min
# Protocol: Thus, the hemolytic activity for these bishydrazones was investigated against murine red blood cells (mRBCs).
# Murine red blood cells (mRBCs) were prepared by suspending 1 mL of murine blood in 3 mL of PBS prior to centrifugation at 1,000 rpm for 5 min. The mRBCs were washed four times in PBS and resuspended in the same buffer to a final concentration of 10^7 mRBC/mL. […] The tubes were incubated at 37° C. for 60 min. […] Eppendorf tubes containing 200 μL of ddH2O and 2 μL of 1% v/v Triton™ X-100 served as negative (blank) and positive controls, respectively. The percentage of hemolysis was calculated using the following equation: % hemolysis=[(absorbance of sample)−(absorbance of blank)]×100/(absorbance of positive control).
# [2] = test system: Candida krusei ATCC 6258 (strain I); test: MIC determination, in vitro antifungal assay (CLSI M27-A3); assay type: cell-based; conditions: MIC-0, 48 h at 35° C.
# Protocol: (§1) The activity of N,N′-diaryl-bishydrazones 7-22 was tested against a panel of seven strains of C. albicans: ATCC 10231(R) (A), ATCC 64124(R) (B), ATCC MYA-2876(S) (C), ATCC 90819(R) (D), ATCC MYA-2310(S) (E), ATCC MYA-1237(R) (F), and ATCC MYA-1003(R) (G). The activity of these bishydrazones 7-22 was also explored against a panel of three non-albicans Candida strains: C. glabrata ATCC 2001 (H), C. krusei ATCC 6258 (I), and C. parapsilosis ATCC 22019 (J). Finally, the activity of these bishydrazones 7-22 was explored against three Aspergillus strains: A. flavus ATCC MYA-3631 (K), A. nidulans ATCC 38163 (L), and A. terreus ATCC MYA-3633 (M).
# (§2) Candida albicans ATCC 10231 (A), C. albicans ATCC 64124 (B), and C. albicans ATCC MYA-2876 (C) were kindly provided by Dr. Jon Y. Takemoto (Utah State University, Logan, UT, USA). C. albicans ATCC 90819 (D), C. albicans ATCC MYA-2310 (E), C. albicans ATCC MYA-1237 (F), C. albicans ATCC MYA-1003 (G), Candida glabrata ATCC 2001 (H), Candida krusei ATCC 6258 (I), Candida parapsilosis ATCC 22019 (J), Aspergillus flavus ATCC MYA-3631 (K), and Aspergillus terreus ATCC MYA-3633 (M) were obtained from the American Type Culture Collection (ATCC; Manassas, VA, USA). Aspergillus nidulans ATCC 38163 (L) was received from Dr. Jon S. Thorson (University of Kentucky, Lexington, KY, USA). Filamentous fungi and yeasts were cultivated at 35° C. in RPMI 1640 medium (with 1-glutamine, without sodium biocarbonate, Sigma-Aldrich, St. Louis, MO) buffered to a pH of 7.0 with 0.165 M morpholinepropanesulfonic acid (MOPS) buffer (Sigma-Aldrich).
# (§3) A single colony of freshly prepared yeast cells was used to inoculate 5 mL of yeast extract peptone dextrose (YPD) broth prior to incubation overnight with shaking at 200 rpm at 35° C. From the actively growing yeast culture, 100 μL were then transferred to 900 μL of sterile ddH2O and re-adjusted to achieve OD600 of 0.12 (˜1×10^6 CFU/mL). The cell suspension was further diluted to achieve 2-4×10^3 CFU/mL in RPMI 1640 medium. […] The final concentration of DMSO was ensured to be <1.25% in all experiments.
# [3] = test system: Candida glabrata ATCC 2001 (strain H); test: as above; assay type: cell-based; conditions: Nakaseomyces glabratus, ATCC2001, 48 h, MIC-0, 48 h at 35° C., read-out: MIC
# Protocol: as §1, §2, §3
# [4] = test system: Aspergillus nidulans ATCC 38163 (strain L); test: MIC determination against filamentous fungi (CLSI M38-A2); assay type: cell-based; conditions: MIC-0, 48 h at 35° C.
# Protocol: as §1, §2
# (§4) Similarly, the MIC values of compounds 7a-24c, as well as that of the two control drugs against filamentous fungi (strains K-M) were determined as previously described in CLSI document M38-A2. Spores were harvested from sporulating cultures growing on potato dextrose agar (PDA) by filtration through sterile glass wool and enumerated by using a hemocytometer to obtain the desired inoculum size. […] Spore suspensions were added to the wells to afford a final concentration of 5×10^5 CFU/mL. The plates were incubated at 35° C. for 48 h. The MIC values of compounds 7a-24c and CAS against filamentous fungi were based on the complete inhibition of growth when compared to the growth control (MIC-0). […] Each test was performed in triplicate.
# [5] = test system: Aspergillus terreus ATCC MYA-3633 (strain M); test: as above; assay type: cell-based; conditions: Aspergillus terreus, 48 h, MIC-0, 48 h at 35° C., read-out: MIC
# Protocol: as §1, §2, §4
# [6] = test system: Aspergillus flavus ATCC MYA-3631 (strain K); test: as above; assay type: cell-based; conditions: MIC-0, 48 h at 35° C.
# Protocol: as §1, §2, §4
# [7] = test system: C. albicans ATCC MYA-2876(S) (strain C); test: MIC determination, in vitro antifungal assay (CLSI M27-A3); assay type: cell-based, Candida albicans; conditions: Candida albicans, 48 h, MIC-0, 48 h at 35° C., read-out: MIC
# Protocol: as §1, §2, §3
# [8] = test system: C. albicans ATCC MYA-1003(R) (strain G); test: as above; assay type: cell-based, Candida albicans; conditions: Candida albicans, 48 h, MIC-0, 48 h at 35° C., read-out: MIC
# Protocol: as §1, §2, §3
# [9] = test system: Candida albicans ATCC 10231(R) (strain A); test: as above; assay type: cell-based; conditions: MIC-0 (no visible growth), 48 h at 35° C.
# Protocol: as §1, §2
# as §3, with “The MIC values of compounds 7a-24c against yeast cells (strains A-J) were determined in 96-well plates as described in the CLSI document M27-A3 with minor modifications. A” for “A”, “experiments. The MIC values for compounds 7a-24c and CAS were defined as the minimum drug concentration that yielded complete inhibition (also known as MIC-0).” for “experiments.”
# [10] = test system: Candida parapsilosis ATCC 22019 (strain J); test: as above; assay type: cell-based; conditions: strain J, MIC-0, 48 h at 35° C.
# Protocol: as §1, §2
# as §3, with “The MIC values of compounds 7a-24c against yeast cells (strains A-J) were determined in 96-well plates as described in the CLSI document M27-A3 with minor modifications. A” for “A”, “experiments. The MIC values for compounds 7a-24c and CAS were defined as the minimum drug concentration that yielded complete inhibition (also known as MIC-0).” for “experiments.”
# [11] = test system: C. albicans ATCC MYA-1237(R) (strain F); test: as above; assay type: cell-based, Candida albicans; conditions: Candida albicans, 48 h, MIC-0, 48 h at 35° C., read-out: MIC
# Protocol: as §1, §2
# as §3, with “The MIC values of compounds 7a-24c against yeast cells (strains A-J) were determined in 96-well plates as described in the CLSI document M27-A3 with minor modifications. A” for “A”, “experiments. The MIC values for compounds 7a-24c and CAS were defined as the minimum drug concentration that yielded complete inhibition (also known as MIC-0).” for “experiments.”
# [12] = test system: C. albicans ATCC 64124(R) (strain B); test: as above; assay type: cell-based, Candida albicans; conditions: Candida albicans, ATCC64124, 48 h, strain B; MIC-0; 48 h at 35° C.; read-out: MIC
# Protocol: as §1, §2
# as §3, with “The MIC values of compounds 7a-24c against yeast cells (strains A-J) were determined in 96-well plates as described in the CLSI document M27-A3 with minor modifications. A” for “A”, “experiments. The MIC values for compounds 7a-24c and CAS were defined as the minimum drug concentration that yielded complete inhibition (also known as MIC-0).” for “experiments.”
# [13] = test system: C. albicans ATCC MYA-2310(S) (strain E); test: as above; assay type: cell-based, Candida albicans; conditions: Candida albicans, 48 h, MIC-0, 48 h at 35° C., read-out: MIC
# Protocol: as §1, §2
# as §3, with “The MIC values of compounds 7a-24c against yeast cells (strains A-J) were determined in 96-well plates as described in the CLSI document M27-A3 with minor modifications. A” for “A”, “experiments. The MIC values for compounds 7a-24c and CAS were defined as the minimum drug concentration that yielded complete inhibition (also known as MIC-0).” for “experiments.”
# [14] = test system: C. albicans ATCC 90819(R) (strain D); test: as above; assay type: cell-based, Candida albicans; conditions: Candida albicans, ATCC90819, 48 h, MIC-0, 48 h at 35° C., read-out: MIC
# Protocol: as §1, §2
# as §3, with “The MIC values of compounds 7a-24c against yeast cells (strains A-J) were determined in 96-well plates as described in the CLSI document M27-A3 with minor modifications. A” for “A”, “experiments. The MIC values for compounds 7a-24c and CAS were defined as the minimum drug concentration that yielded complete inhibition (also known as MIC-0).” for “experiments.”
# [15] = Pichia kudriavzevii, ATCC6258, 48 h, read-out: MIC
# [16] = Aspergillus nidulans, ATCC38163, 48 h, read-out: MIC
# [17] = Aspergillus flavus, 48 h, read-out: MIC
# [18] = Candida albicans, ATCC10231, 48 h, read-out: MIC
# [19] = Lodderomyces parapsilosis, ATCC22019, 48 h, read-out: MIC
SMILES,hemolytic activity (in words) [1],Percentage of hemolysis (±SDEV) ([1]; 0.975 μg/mL),Percentage of hemolysis (±SDEV) ([1]; 1.95 μg/mL),Percentage of hemolysis (±SDEV) ([1]; 3.9 μg/mL),Percentage of hemolysis (±SDEV) ([1]; 7.8 μg/mL),Percentage of hemolysis (±SDEV) ([1]; 15.6 μg/mL),Percentage of hemolysis (±SDEV) ([1]; 31.3 μg/mL),"MIC [2, 15]",MIC [3],"MIC [4, 16]",MIC [5],"MIC [6, 17]",MIC [7],MIC [8],"MIC [9, 18]","MIC [10, 19]",MIC [11],MIC [12],MIC [13],MIC [14],other results
C(=N\Nc1ccccc1)/c1ccc(-c2ccc(/C=N/Nc3ccccc3)cc2)cc1 [Compound 7b],lack of hemolytic activity,0.1 ± 0.1%,3.7 ± 1.6%,3.4 ± 1.7%,2.9 ± 1.1%,14.1 ± 6.0%,10.8 ± 0.6%,> 31.3 µg/mL,> 31.3 µg/mL,1.95 to 3.9 µg/mL,15.6 µg/mL,1.95 to 3.9 µg/mL,> 31.3 µg/mL,> 31.3 µg/mL,7.8 µg/mL,> 31.3 µg/mL,> 31.3 µg/mL,> 31.3 µg/mL,> 31.3 µg/mL,31.3 µg/mL,MIC [4]: 1.95 µg/mL; MIC [6]: 3.9 µg/mL
Fc1cccc(N/N=C/c2ccc(-c3ccc(/C=N/Nc4cccc(F)c4)cc3)cc2)c1 [Compound 12b],lack of hemolytic activity,0.8 ± 0.9%,0%,3.2 ± 3.0%,2.6 ± 1.6%,7.7 ± 3.1%,10.3 ± 0.2%,7.8 to 15.6 µg/mL,> 31.3 µg/mL,> 31.3 µg/mL,> 31.3 µg/mL,31.3 µg/mL,> 31.3 µg/mL,> 31.3 µg/mL,7.8 to 15.6 µg/mL,3.9 µg/mL,> 31.3 µg/mL,> 31.3 µg/mL,> 31.3 µg/mL,> 31.3 µg/mL,MIC [2]: 15.6 µg/mL; MIC [9]: 7.8 µg/mL; MIC [10]: 3.9 µg/mL
Fc1ccc(F)c(N/N=C/c2ccc(-c3ccc(/C=N/Nc4cc(F)ccc4F)cc3)cc2)c1 [Compound 21b],–,–,–,–,–,–,–,> 31.3 µg/mL,> 31.3 µg/mL,> 31.3 µg/mL,> 31.3 µg/mL,> 31.3 µg/mL,> 31.3 µg/mL,> 31.3 µg/mL,31.3 µg/mL,> 31.3 µg/mL,> 31.3 µg/mL,> 31.3 µg/mL,> 31.3 µg/mL,> 31.3 µg/mL,–
N=C(N)N/N=C/c1ccc(-c2ccc(/C=N/NC(=N)N)cc2)cc1 [Compound 24b],–,–,–,–,–,–,–,15.6 µg/mL,> 31.3 µg/mL,> 31.3 µg/mL,> 31.3 µg/mL,> 31.3 µg/mL,> 31.3 µg/mL,15.6 µg/mL,31.3 µg/mL,3.9 µg/mL,> 31.3 µg/mL,> 31.3 µg/mL,> 31.3 µg/mL,> 31.3 µg/mL,–
C/C(=N\NC(=N)N)c1ccc(-c2ccc(/C(C)=N/NC(=N)N)cc2)cc1 [Compound 24c],–,–,–,–,–,–,–,3.9 µg/mL,7.8 µg/mL,15.6 µg/mL,> 31.3 µg/mL,> 31.3 µg/mL,15.6 µg/mL,15.6 µg/mL,3.9 µg/mL,1.95 µg/mL,15.6 µg/mL,3.9 µg/mL,15.6 µg/mL,3.9 µg/mL,–
